# Results as given in paper PMC5325082 (Molecular Pharmacology, 2017).
# Experiments:
# α9χY190Tα10χ = format: binding, rat
# homomeric α10χ = homomeric α10χ (UniProt P23979+Q9JLB5, L231I/L232I); format: binding, rat
# [1] = molecular target: T1, α9χα10χ (α9 and α10 extracellular domains fused to 5-HT3A) (UniProt P23979+P43144+Q9JLB5, L231I/L232I); experiment: [3H]-α-BTX radioligand binding, membranes of transfected tsA201 cells; design: species or system rat
# T1 construct: the extracellular N-terminal domain of the α9 or α10 subunit; expressed in transfected cells; host or cells: tsA201 cells (HEK293-derived), membrane preparation
# Method: (§1) Chimeric subunit cDNAs containing the extracellular N-terminal domain of the α9 or α10 subunit fused to the transmembrane and intracellular domain of the mouse 5-HT3A subunit have been described previously ([Baker et al., 2004]). The mammalian cell line tsA201 (derived from the human embryonic kidney 293 cell line) was obtained from Dr. William Green (University of Chicago, Chicago). Cells were cultured in Dulbecco’s modified Eagle’s medium (Invitrogen, Paisley, United Kingdom) containing 2 mM L-GlutaMAX (Invitrogen) plus 10% heat-inactivated fetal calf serum (Sigma, Poole, United Kingdom) with penicillin (100 U/ml) and streptomycin (100 µg/ml) and were maintained in a humidified incubator containing 5% CO2 at 37°C. Cells were transiently transfected using Effectene transfection reagent (QIAGEN, Crawley, United Kingdom) according to the manufacturer’s instructions. In all cases, cells were transfected overnight and assayed for expression approximately 40–48 hours after transfection. To ensure that the levels of radioligand binding were not influenced by differences in the amount of subunit cDNA expressed, the amount of each subunit plasmid DNA and also the total amount of plasmid DNA were kept constant when subunits were expressed singly and in combination. This was achieved by the inclusion of empty plasmid expression vector when single subunits were transfected.
# (§2) Binding studies with [^3H]-α-bungarotoxin (α-BTX) in cell membrane preparations were performed essentially as described previously ([Lansdell and Millar, 2000]; [Harkness and Millar, 2002]). Membranes (typically, 10–100 µg of protein) were incubated with radioligand (final concentration 20 nM) for 150 minutes at 4°C in a total volume of 300 µl in the presence of protease inhibitors leupeptin (2 µg/ml) and pepstatin (1 µg/ml). Our standard protocol for determining nonspecific binding was the addition of 1 mM carbachol, 1 mM nicotine, and 10 µM methyllycaconitine to triplicate samples. […] In all cases the levels of specific binding were determined by subtracting the level of nonspecific binding from the total binding (both of which were determined in triplicate). The data were determined as means of three independent experiments, each performed in triplicate. Radioligand binding was assayed by filtration onto 0.5% polyethylenimine-presoaked Whatman GF/B filters (Sigma-Aldrich, Dorset, England) followed by rapid washing (typically, five washes, each of 4 ml) with ice-cold 10 mM phosphate buffer using a Brandel cell harvester, and radioactivity was determined by scintillation counting. […] Protein concentrations were determined using bovine serum albumin standards (Bio-Rad, Hercules, CA).
# α9χα10χW55T = molecular target: T2, α9χα10χW55T (UniProt P23979+P43144+Q9JLB5, L231I/L232I/W81T); experiment: as above; design: species or system rat
# T2 construct: containing the extracellular N-terminal domain of the α9 or α10 subunit fused to the transmembrane and intracellular domain of the mouse 5-HT3A subunit; mouse 5-HT3A subunit transmembrane and intracellular domain (fusion partner); expressed in transfected cells; host or cells: tsA201 (derived from human embryonic kidney 293), transient transfection; membrane preparations
# Method: as §1, §2
# α9χα10χY190T = format: binding, rat
# α9χW55Tα10χ = α9χW55Tα10χ (UniProt P23979+P43144+Q9JLB5, L231I/L232I/W82T); format: binding, rat
# α9χY190T (homomeric) = format: binding, rat
# [2] = system: homomeric α10χW55T receptors; format: binding, rat
# α10χY190T (homomeric) = format: binding, rat
# α9χW55Tα10χW55T = format: binding, rat
# [3] = system: α9χY190Tα10χY190T (heteromeric double mutant); format: binding, rat
# [4] = system: homomeric α9χW55T receptors; format: binding, rat
substance,measurement,setting,value
α-bungarotoxin [[^3H]-α-BTX],"Specific binding of [3H]-α-BTX, fold higher than homomeric α10χ",α9χY190Tα10χ,4 fold
same,"Specific binding of [3H]-α-BTX, fold lower than wild-type α9χα10χ",α9χY190Tα10χ,6 fold
same,Specific binding of [3H]-α-BTX,homomeric α10χ,1.4 ± 0.5 fmol/mg
same,"Specific binding of [3H]-α-BTX, fold higher than α9χ expressed alone",[1],6 fold
same,Specific binding of [3H]-α-BTX,α9χα10χW55T,specific binding levels similar to those observed with wild-type heteromeric α9χα10χ receptors
same,"Specific binding of [3H]-α-BTX, fold lower than wild-type α9χα10χ",α9χα10χY190T,4 fold
same,Specific binding of [3H]-α-BTX,α9χW55Tα10χ,binding levels similar to those observed with either α10χ or α10χW55T when expressed alone
same,Specific binding of [3H]-α-BTX,α9χY190T (homomeric),complete loss of specific binding
same,Specific binding of [3H]-α-BTX,[2],2.5 ± 0.6 fmol/mg
same,Specific binding of [3H]-α-BTX,α10χY190T (homomeric),complete loss of specific binding
same,Specific binding of [3H]-α-BTX,α9χW55Tα10χW55T,binding levels similar to those observed with either α10χ or α10χW55T when expressed alone
same,Specific binding of [3H]-α-BTX,[3],complete loss of specific binding
same,Specific binding of [3H]-α-BTX,[4],no detectable specific binding
